Assay results published in US12378211B2, “Carbonic anhydrase inhibitors and antibiotics against multidrug resistant bacteria” (Purdue Research Foundation, priority 2018, dated 2025).
In brackets after ≈: the same amount, converted by molar mass.

Assays:
[1] = test system: Mutant-12 of Enterococcus fecalis NR 31975; experiment: microbe, parasite or virus in culture; format: cell-based; details: Mutant-12
[2] = test system: Mutant-11 of Enterococcus fecalis NR 31975; experiment: microbe, parasite or virus in culture; format: cell-based; details: Mutant-11
[3] = test system: Mutant-6 of Enterococcus fecalis NR 31975; experiment: microbe, parasite or virus in culture; format: cell-based; details: Mutant-6
[4] = test system: Mutant-8 of Enterococcus fecalis NR 31975; experiment: microbe, parasite or virus in culture; format: cell-based; details: Mutant-8
[5] = test system: Mutant-15 of Enterococcus fecalis NR 31975; experiment: microbe, parasite or virus in culture; format: cell-based; details: Mutant-15
[6] = test system: Lactobacillus casei ATCC 334; experiment: MIC against human normal gut microbiota; format: cell-based; details: MRS broth, 5% CO2, 48 hours
Outline: (§1)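 Compounds were serially diluted against ~5×10^5 CFU/ml inocula for 48 h at 37° C. Bacteroides and Bifidobacterium were tested in BHIS broth anaerobically, Lactobacillus in MRS broth under 5% CO2.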

[7] = test system: Bifidobacterium longum subsp. Longum—44B HM 845; experiment: MIC against human normal gut microbiota; format: cell-based; details: BHIS broth, anaerobic, 48 hours
Outline: as §1

[8] = test system: Bifidobacterium breve—JCP7499 HIM 1120; experiment: MIC against human normal gut microbiota; format: cell-based; details: BHIS broth, anaerobic, 48 hours
Outline: as §1

[9] = test system: Bacteroides fragilis—CL07T00C01 HIM-709; experiment: MIC against human normal gut microbiota; format: cell-based; details: BHIS broth, anaerobic, 48 hours
Outline: as §1

[10] = test system: Mutant-13 of Enterococcus fecalis NR 31975; experiment: microbe, parasite or virus in culture; format: cell-based; details: Mutant-13
[11] = test system: MRSA NRS 384 (MRSA USA300); experiment: MIC against Staphylococci, broth microdilution; format: cell-based, Staphylococcus aureus; details: TSB
Outline: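 CLSI broth microdilution in tryptone soy broth, inoculum about 5×10^5 CFU/mL from overnight agar cultures at 0.5 McFarland, with serially diluted compound. Plates were incubated aerobically at 37° C for 18-20 h. MIC was the lowest concentration with no visible growth.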

[12] = test system: Mutant-5 of Enterococcus fecalis NR 31975; experiment: microbe, parasite or virus in culture; format: cell-based; details: Mutant-5
[13] = test system: Mutant-14 of Enterococcus fecalis NR 31975; experiment: microbe, parasite or virus in culture; format: cell-based; details: Mutant-14
[14] = test system: Mutant-4 of Enterococcus fecalis NR 31975; experiment: microbe, parasite or virus in culture; format: cell-based; details: Mutant-4
[15] = test system: Enterococcus faecium Patient #2-1-NR-31909; experiment: MIC, broth microdilution in TSB; format: cell-based; details: TSB; for MIC: Table 1; for MIC in TSB: Table 7
Outline: (§2)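 Enterococci are cultured overnight on tryptone soya agar at 37° C under air. A 0.5 McFarland suspension is diluted in broth to about 5×10^5 CFU/mL and exposed to serially diluted compounds.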

[16] = test system: Enterococcus fecalis Strain SF 28073-NR31972; experiment: MIC, broth microdilution in TSB; format: cell-based; details: TSB; for MIC: Table 1; for MIC in TSB: Table 7
Outline: as §2

[17] = test system: Enterococcus fecalis Strain SF24413 NR31971; experiment: MIC, broth microdilution in TSB; format: cell-based; details: TSB; for MIC: Table 1; for MIC in TSB: Table 7
Outline: as §2

[18] = test system: Enterococcus faecium Patient #3-1 NR-31912; experiment: MIC, broth microdilution in TSB; format: cell-based; details: TSB; for MIC: Table 1; for MIC in TSB: Table 7
Outline: as §2

[19] = test system: Enterococcus faecium E417-HM-965; experiment: MIC, broth microdilution in TSB; format: cell-based; details: TSB; for MIC: Table 1
Outline: as §2

[20] = test system: Enterococcus faecalis—S613 HM-334; experiment: MIC, broth microdilution in TSB; format: cell-based; details: TSB; for MIC: Table 1; for MIC in TSB: Table 7
Outline: as §2

[21] = test system: Enterococcus fecalis Strain MMH594-NR31975; experiment: MIC, broth microdilution in TSB; format: cell-based; details: TSB; for MIC: Table 1; for MIC in TSB: Table 7
Outline: as §2

[22] = test system: Enterococcus fecalis Strain SF 24397 NR31970; experiment: MIC, broth microdilution in TSB; format: cell-based; details: TSB; for MIC: Table 1; for MIC in TSB: Table 7
Outline: as §2

[23] = test system: Mutant-7 of Enterococcus fecalis NR 31975; experiment: microbe, parasite or virus in culture; format: cell-based; details: Mutant-7
[24] = test system: Mutant-9 of Enterococcus fecalis NR 31975; experiment: microbe, parasite or virus in culture; format: cell-based; details: Mutant-9
[25] = test system: Mutant-2 of Enterococcus fecalis NR 31975; experiment: microbe, parasite or virus in culture; format: cell-based; details: Mutant-2

## NS(=O)(=O)c1nnc(NC(=O)CCC2CCCC2)s1 [CAI0015]
[1]
  MIC: 2 µg/mL (≈ 6.57 µM)
[2]
  MIC: 2 µg/mL (≈ 6.57 µM)
[3]
  MIC: 1 µg/mL (≈ 3.29 µM)
[4]
  MIC: 2 µg/mL (≈ 6.57 µM)
[5]
  MIC: 1 µg/mL (≈ 3.29 µM)
[6]
  MIC: >64 µg/mL
[7]
  MIC: >64 µg/mL
[8]
  MIC: >64 µg/mL
[9]
  MIC: >64 µg/mL
[10]
  MIC: 1 µg/mL (≈ 3.29 µM)
[11]
  MIC: >64 µg/mL
[12]
  MIC: 1 µg/mL (≈ 3.29 µM)
[13]
  MIC: 1 µg/mL (≈ 3.29 µM)
[14]
  MIC: 1 µg/mL (≈ 3.29 µM)
[15]
  MIC: 0.125 µg/mL (≈ 0.411 µM)
  MIC in TSB: 0.06 µg/mL (≈ 0.197 µM)
[16]
  MIC: 0.125 µg/mL (≈ 0.411 µM)
  MIC in TSB: 0.06 µg/mL (≈ 0.197 µM)
[17]
  MIC: 0.06 µg/mL (≈ 0.197 µM)
  MIC in TSB: 0.06 µg/mL (≈ 0.197 µM)
[18]
  MIC: 1 µg/mL (≈ 3.29 µM)
  MIC in TSB: 0.125 µg/mL (≈ 0.411 µM)
[19]
  MIC: 0.25 µg/mL (≈ 0.821 µM)
[19]; Table 7
  MIC in TSB: 0.06 µg/mL (≈ 0.197 µM)
[20]
  MIC: 0.125 µg/mL (≈ 0.411 µM)
  MIC in TSB: 0.06 µg/mL (≈ 0.197 µM)
[21]
  MIC: 0.06 µg/mL (≈ 0.197 µM)
  MIC in TSB: 0.06 µg/mL (≈ 0.197 µM)
[22]
  MIC: 0.125 µg/mL (≈ 0.411 µM)
  MIC in TSB: 0.06 µg/mL (≈ 0.197 µM)
[23]
  MIC: 0.25 µg/mL (≈ 0.821 µM)
[24]
  MIC: 1 µg/mL (≈ 3.29 µM)
[25]
  MIC: 2 µg/mL (≈ 6.57 µM)

## CC(C)=CC(=O)Nc1nnc(S(N)(=O)=O)s1 [CAI0016, 3-Methyl-N-(5-sulfamoyl-1,3,4-thiadiazol-2-yl) but-2-enamide]
[1]
  MIC: 8 µg/mL (≈ 30.5 µM)
[2]
  MIC: 4 µg/mL (≈ 15.2 µM)
[3]
  MIC: 16 µg/mL (≈ 61 µM)
[4]
  MIC: 4 µg/mL (≈ 15.2 µM)
[5]
  MIC: 8 µg/mL (≈ 30.5 µM)
[6]
  MIC: >64 µg/mL
[7]
  MIC: >64 µg/mL
[8]
  MIC: >64 µg/mL
[9]
  MIC: >64 µg/mL
[10]
  MIC: 4 µg/mL (≈ 15.2 µM)
[11]
  MIC: >64 µg/mL
[12]
  MIC: 4 µg/mL (≈ 15.2 µM)
[13]
  MIC: 4 µg/mL (≈ 15.2 µM)
[14]
  MIC: 8 µg/mL (≈ 30.5 µM)
[15]
  MIC: 0.5 µg/mL (≈ 1.91 µM)
  MIC in TSB: 0.25 µg/mL (≈ 0.953 µM)
[16]
  MIC: 0.5 µg/mL (≈ 1.91 µM)
  MIC in TSB: 0.5 µg/mL (≈ 1.91 µM)
[17]
  MIC: 0.5 µg/mL (≈ 1.91 µM)
  MIC in TSB: 0.5 µg/mL (≈ 1.91 µM)
[18]
  MIC: 1 µg/mL (≈ 3.81 µM)
  MIC in TSB: 0.5 µg/mL (≈ 1.91 µM)
[19]
  MIC: 0.25 µg/mL (≈ 0.953 µM)
[20]
  MIC: 0.5 µg/mL (≈ 1.91 µM)
  MIC in TSB: 0.25 µg/mL (≈ 0.953 µM)
[21]
  MIC: 0.5 µg/mL (≈ 1.91 µM)
  MIC in TSB: 0.25 µg/mL (≈ 0.953 µM)
[22]
  MIC: 0.5 µg/mL (≈ 1.91 µM)
  MIC in TSB: 0.25 µg/mL (≈ 0.953 µM)
[23]
  MIC: 4 µg/mL (≈ 15.2 µM)
[24]
  MIC: 4 µg/mL (≈ 15.2 µM)
[25]
  MIC: 8 µg/mL (≈ 30.5 µM)
